Legend:
[1] = system: CpG-rich sequences of mouse IL-6 promoter and introns 1, 3; assay: CpG-free luciferase reporter with IL-6 promoter/intron CpG-rich segments in N2a cells; format: cell-based; settings: 24 h
Experimental: To investigate how DHCA may attenuate IL-6 generation, we tested the effect of DHCA on Toll-like receptor-4 mediated signaling pathways. PBMCs were pretreated with DHCA and stimulated with LPS using the same protocol as during screening. Samples were taken at 0, 30 min, 60 min, 6 h and 16 h following LPS stimulation and cell lysates were subjected to a multiplex ELISA assay. […] Based on evidence that DNA methylation at a single CpG in the human IL-6 promoter region effectively alters IL-6 expression, we next tested whether DHCA can modulate IL-6 gene expression through methylation mechanisms. We treated PBMC cells with DHCA and measured the expression of enzymes essential for DNA methylation/demethylation. […] To investigate how methylation influences IL-6 gene expression, we employed the CpG-free luciferase reporter system. We cloned a ~280 bp CpG rich DNA segment from the mouse IL-6 promoter into a promoterless CpG-free reporter construct and transfected into N2a cells. We found the CpG-rich IL-6 promoter segment presented no inherent promoter activity as reflected by no differences in luciferase activity compared to the control construct (Fig. 2f). […] We then cloned CpG rich DNA segments from IL-6 introns 1, 3 or 4 into the CpG-free luciferase reporter construct with a minimal EF1 promoter and no enhancer activity. […] In contrast, the CpG-rich region of IL-6 intron 4 presented no observable enhancer activity (Fig. 2g). […] To test whether DHCA may influence the expression of other pro-inflammatory factors, we measured the level of secreted cytokines following LPS stimulation (Supplementary Fig. 3).
CpG-rich motif from mouse IL-6 promoter and intron 1, intron 3, and intron 4 were cloned into basic (no promoter or enhancer) or promoter (minimal EF1 promoter with no enhancer) pCpG-free Lucia plasmid (InvivoGen) using In-Fusion Cloning Kit (Clontech Laboratories). Plasmids were prepared in E. coli GT115 cells and expressed in N2A neuoblastoma cells using lipofectamine 2000 (ThermoFisher) according to manufacturer’s instruction. Following overnight recovery, cells were subjected to 5 µM of methylation inhibitor 5-Aza-2′-deoxycytidine (AZA-DC) or DHCA treatment. Twenty-four hours later, 10 µl of medium was incubated with 50 µl of QUANTI-Luc luciferase substrate for luciferase activity assessment.

[2] = system: stress susceptible C57BL/6 mice after RSDS; assay: RSDS, therapeutic treatment of susceptible mice; format: in vivo, mouse; settings: Imipramine 20 mg/kg-BW/day i.p. for 35 days
Text: To test the therapeutic efficacy of DHCA/Mal-gluc, we induced depression-like behavior using two different methods. In the first set of studies, mice were subjected to RSDS followed by SI test. All susceptible mice with SI ratio <0.8 were randomly grouped into vehicle or DHCA/Mal-gluc group. Following two weeks treatment, all mice were subjected to SI re-testing without further stress exposure (Fig. 5a). […] In a parallel study to compare the treatment efficacy with the tricylic antidepressant Imipramine, we treated the susceptible mice with Imipramine through i.p. injection for 35 days. […] We then examined the effect of DHCA/Mal-gluc on RSDS-induced anhedonia and an ethologically relevant self-neglect phenotype. […] We next measured the levels of IL-6 in plasma and Rac1 in the NAc after behavioral testing. […]
All social interaction (SI) tests were performed under red-light conditions. […] Their movements were automatically monitored and recorded (Ethovision 3.0; Noldus Information Technology) for 2.5 min in the absence (target absent phase) of a novel CD-1 mouse and followed by 2.5 min exploratory behavior in the presence of a caged CD-1 mouse (target present phase). SI behavior was then calculated as a ratio of the time spent in the interaction zone with the target present divided by the time spent in the interaction zone with the target absent. […]

[3] = in vivo, po; cited from earlier work

Compound | Detection in Brain [3] | Detection in Plasma [3] | other results
Nc1ncn([C@H]2C[C@H](O)[C@@H](CO)O2)c(=O)n1 [AZA-DC, 5-aza-2′-deoxycytidine] |  |  | luciferase expression, CpG-rich IL-6 promoter segment ([1]; 5 µM): no effect; luciferase (enhancer) activity, IL-6 intron 1 [1]: partially reduced; luciferase (enhancer) activity, IL-6 intron 3 [1]: totally abolished
CN(C)CCCN1c2ccccc2CCc2ccccc21 [Imipramine] |  |  | susceptible mice with resilient phenotype upon retesting [2]: about 50%
OMe-quercetin-glucuronide | + | + | 
OMe-resveratrol-glucuronide | + | + | 
quercetin-glucuroide | + | + | 
resveratrol-glucuronide | + | + | 
